Source: EPA's ToxValDB 9.5 (doi:10.2903/j.efsa.2009.217r)
Converted amounts (≈) assume the structure as drawn.

Assays:
[1] = tested on: Oryctolagus sp.; conditions: reproduction developmental; body weight
[2] = tested on: Pimephales promelas; conditions: chronic/long-term; duration: 21 days; growth
[3] = tested on: Oncorhynchus mykiss; conditions: acute; duration: 96 hours; mortality
[4] = tested on: Anas platyrhynchos; conditions: oral, mortality
[5] = tested on: Colinus virginianus; conditions: acute; oral; diet; mortality
[6] = tested on: Rattus norvegicus
[7] = tested on: Tagia sp.; conditions: acute; duration: 14 days; mortality
[8] = tested on: Bibionidae; conditions: chronic/long-term; duration: 28 days

With `Oc1ccccc1-c1ccccc1` [2-Phenylphenol] the NOAEL [1] was 100 mg/kg-day, the NOEC [2] was 0.036 mg/L and the LC50 [3] was 4 µg/mL (≈ 23.5 µM). The LD50 ([4]; acute, unspecified) was > 2250 mg/kg-day, the LC50 ([4]; short-term, feed) was > 1900 mg/kg-day and the LC50 [5] was > 2810 mg/kg-day. It also gave an LD50 ([6]; acute, oral, mortality) of 2730 mg/kg-day, an NOAEL ([6]; chronic, duration: 2 years, oral, Fischer 344, histopathology: neoplastic) of 39 mg/kg-day and an NOAEL ([6]; reproduction developmental) of 500 mg/kg-day. It also gave an LC50 [7] of 198 mg/kg and an NOEC [8] of 1.85 mg/L.
